Holding throughout (type): cell-based
In assay [1] the test system is Candida humilis UMY12 (UNIMI collection). The assay can be described thus: disc diffusion test on yeast. The following applies: MHA with 2% glucose, 5120 µg/mL, preliminary tests. Here is the method: Some preliminary tests were also effected to evaluate the activity against eukaryotic microorganisms such as yeasts.
The disc diffusion method was applied again, using the yeast Candida humilis UMY12 (UNIMI collection).
2% glucose was added to the MHA medium, and the concentration of the suspension amounted to about 3×10^6 CFU/mL. The concentration of the chemical compounds amounted to 5120 µg/mL for both compounds.
Background: In agar diffusion tests the substance spreads into inoculated agar from a disc or well.

The test system of the next assay is E. coli. The assay can be described thus: MIC evaluation, broth microdilution method (CLSI). The following applies: Escherichia coli, 37°C. The text has this:
(§1) Tests were then effected on the two bacteria analysed with the agar diffusion test and on two other microorganisms such as Pseudomonas aeruginosa DSM 22644 (PAO1) and Bacillus cereus DSM31 to evaluate the Minimum Inhibitory Concentration (MIC), i.e. the lowest concentration of compound able to inhibit the growth of a microorganism. The method used was the broth microdilution method (CLSI - Clinical and Laboratory Standards Institute). Briefly, the procedure involved the preparation of serial dilutions of the antimicrobial agent (256 to 0.125 mg/1) distributed in a 96-well microtiter plate (microdilution). Each well was then inoculated with the reference microbial strain at the concentration of about […] (0.5 McFarlands). The 96-well microtiter plates were then incubated at 37°C.
Background: In broth dilution the organism is exposed to a series of concentrations in liquid medium.

The next assay deals with S. aureus. The assay can be described thus: MIC evaluation, broth microdilution method (CLSI). The settings on record: Staphylococcus aureus, 37°C.
Text: as §1

Assay [2] relates to Staphylococcus aureus ATCC25923. Description: disc diffusion antimicrobial susceptibility test (EUCAST). The settings on record: MHA, 1000 to 125 µg/mL, 37°C, 16-20 h. The method, then: The antimicrobial susceptibility tests were effected by the disc diffusion method as indicated by EUCAST (European Committee on Antimicrobial Susceptibility Testing). The plates were prepared with Mueller Hinton Agar (MHA) medium into which microbial suspensions of Escherichia coli ATCC25922 and Staphylococcus aureus ATCC25923 were inoculated at a concentration of about 2×10^8 CFU/mL. Sterile discs were then placed on each plate and subsequently inoculated with successive concentrations of the two chemical compounds analysed (domiphen bromide and para-bromo domiphen bromide), together with a positive control (chloramphenicol) and a negative control (MH broth). The plates were then incubated at 37°C in aerobiosis for 16-20 h. After incubation, any inhibition zone due to the potential antimicrobial activity was measured with a ruler, and the activities of the two molecules were compared. In Figure 8 and Figure 9: • TQ= concentration of compound amounting to 1000 µg/mL • 1:2= concentration of compound amounting to 500 µg/mL • 1:4= concentration of compound amounting to 250 µg/mL • 1:8= concentration of compound amounting to 125 µg/mL • CHL= chloramphenicol (antibiotic) • CNEG= negative control (MHB).

The next assay deals with Bacillus cereus DSM31. The assay can be described thus: MIC evaluation, broth microdilution method (CLSI). The following applies: summary statement in words.
Text: as §1

Assay [3] concerns Pseudomonas aeruginosa DSM 22644 (PAO1). Description: MIC evaluation, broth microdilution method (CLSI). The settings on record: summary statement in words.
Text: as §1

Assay [4] relates to Escherichia coli ATCC25922. The assay can be described thus: disc diffusion antimicrobial susceptibility test (EUCAST). The following applies: MHA, 1000 to 125 µg/mL, 37°C, 16-20 h, compared with domiphen bromide. Here is the method: The antimicrobial susceptibility tests were effected by the disc diffusion method as indicated by EUCAST (European Committee on Antimicrobial Susceptibility Testing). The plates were prepared with Mueller Hinton Agar (MHA) medium into which microbial suspensions of Escherichia coli ATCC25922 and Staphylococcus aureus ATCC25923 were inoculated at a concentration of about 2×10^8 CFU/mL. Sterile discs were then placed on each plate and subsequently inoculated with successive concentrations of the two chemical compounds analysed (domiphen bromide and para-bromo domiphen bromide), together with a positive control (chloramphenicol) and a negative control (MH broth). The plates were then incubated at 37°C in aerobiosis for 16-20 h. After incubation, any inhibition zone due to the potential antimicrobial activity was measured with a ruler, and the activities of the two molecules were compared. In Figure 6 and Figure 7: • TQ= concentration of compound amounting to 1000 µg/mL 1:2= concentration of compound amounting to 500 µg/mL • 1:4= concentration of compound amounting to 250 µg/mL • 1:8= concentration of compound amounting to 125 µg/mL • CHL= chloramphenicol (antibiotic) • CNEG= negative control (MHB).

This note sets out measurements from patent publication EP3681856B1, “COMPOUNDS HAVING PRESERVATIVE, ANTIMICROBIAL AND ANTISEPTIC ACTIVITY” (Universita' degli Studi di Milano, priority 2017, dated 2019).

SMILES strings stand for the structures.

What is called MIC is the lowest concentration that inhibits growth of the organism.

In the case of `CCCCCCCCCCCC[N+](C)(C)CCOc1ccccc1` [domiphen bromide, Domiphen bromide, reference compound], the “antimicrobial activity against yeast” value in assay [1] was “almost the same antimicrobial activity”. Further, the MIC in the assay with E. coli is 8 µg/mL; against S. aureus it was 1 µg/mL.
On to `CCCCCCCCCCCC[N+](C)(C)CCOc1ccc(Br)cc1` [compound of formula (Ia), (dodecyldimethyl-2-p-bromophenoxyethyl)ammonium bromide], for which the “antimicrobial activity against yeast” value in assay [1] was “almost the same antimicrobial activity”. The “antimicrobial activity (inhibition zone) towards S. aureus” value in assay [2] is reported as “exhibits antimicrobial activity”. Moreover, the MIC against E. coli was 8 µg/mL; against S. aureus, 1 µg/mL. For the same molecule, the “activity compared with domiphen against Bacillus cereus” value in the assay on Bacillus cereus DSM31 is reported as “more active than domiphen”. For the same molecule, the “activity compared with domiphen against Pseudomonas aeruginosa” value in assay [3] is “more active than domiphen”. For the same molecule, the “antimicrobial activity (inhibition zone) towards E. coli” value in assay [4] is on record as “comparable with that of domiphen bromide”.
